Assay results taken from the NIST ThermoML archive (doi:10.1021/je501118w).
Several values for one entry are separate records, joined by “and”; a condition that tells them apart may be missing. Identical values can stand only once. Numbers after ± are expanded uncertainties.

Conditions: Liquid, Vibrating tube method

CCCCCC[n+]1ccn(C)c1.O=S(=O)([N-]S(=O)(=O)C(F)(F)F)C(F)(F)F
Conditions | mass density
273.15 K, 101.33 kPa | 1395.63 ± 0.8 kg/m3 and 1395.14 ± 0.8 kg/m3 and 1395.28 ± 0.8 kg/m3
278.15 K, 101.33 kPa | 1390.37 ± 0.79 kg/m3 and 1390.93 ± 0.79 kg/m3
283.15 K, 101.33 kPa | 1385.72 ± 0.79 kg/m3 and 1385.89 ± 0.79 kg/m3 and 1386.23 ± 0.79 kg/m3
288.15 K, 101.33 kPa | 1381.16 ± 0.79 kg/m3 and 1381.54 ± 0.79 kg/m3
288.15 K, 14950 kPa | 1393.3 ± 3.1 kg/m3
288.15 K, 20180 kPa | 1396.8 ± 3.1 kg/m3
288.15 K, 25080 kPa | 1400 ± 3.1 kg/m3
288.15 K, 30100 kPa | 1403.2 ± 3.1 kg/m3
288.15 K, 40120 kPa | 1409.5 ± 3.2 kg/m3
288.15 K, 49940 kPa | 1415.3 ± 3.3 kg/m3
288.15 K, 75500 kPa | 1429.5 ± 3.5 kg/m3
288.15 K, 124700 kPa | 1453.9 ± 4 kg/m3
288.15 K, 174600 kPa | 1474.9 ± 4.6 kg/m3
288.16 K, 100000 kPa | 1442.2 ± 3.7 kg/m3
288.16 K, 150500 kPa | 1465 ± 4.3 kg/m3
293.15 K, 101.33 kPa | 1376.86 ± 0.79 kg/m3 [middle of 4 runs]
298.15 K, 101.33 kPa | 1372.17 ± 0.78 kg/m3 [middle of 4 runs]
303.15 K, 101.33 kPa | 1367.48 ± 0.78 kg/m3 and 1367.61 ± 0.78 kg/m3
313.15 K, 101.33 kPa | 1358.37 ± 0.78 kg/m3 and 1358.51 ± 0.78 kg/m3 and 1358.44 ± 0.78 kg/m3
323.15 K, 101.33 kPa | 1349.3 ± 0.77 kg/m3 and 1349.43 ± 0.77 kg/m3 and 1349.35 ± 0.77 kg/m3
333.15 K, 101.33 kPa | 1340.33 ± 0.77 kg/m3 and 1340.27 ± 0.77 kg/m3 and 1340.4 ± 0.77 kg/m3
343.15 K, 101.33 kPa | 1331.36 ± 0.76 kg/m3 and 1331.29 ± 0.76 kg/m3 and 1331.38 ± 0.76 kg/m3
353.15 K, 101.33 kPa | 1322.46 ± 0.76 kg/m3 and 1322.34 ± 0.76 kg/m3 and 1322.43 ± 0.76 kg/m3
363.15 K, 101.33 kPa | 1313.62 ± 0.75 kg/m3 and 1313.44 ± 0.75 kg/m3 and 1313.52 ± 0.75 kg/m3

CCCC[n+]1ccn(C)c1.O=S(=O)([N-]S(=O)(=O)C(F)(F)F)C(F)(F)F
Conditions | mass density
273.15 K, 100 kPa | 1460.67 ± 0.83 kg/m3
278.15 K, 100 kPa | 1455.84 ± 0.83 kg/m3
283.15 K, 100 kPa | 1451.04 ± 0.83 kg/m3
288.15 K, 100 kPa | 1446.23 ± 0.82 kg/m3
288.15 K, 10320 kPa | 1453.8 ± 3.1 kg/m3
288.15 K, 15130 kPa | 1457.1 ± 3.1 kg/m3
288.15 K, 20090 kPa | 1460.4 ± 3.1 kg/m3
288.15 K, 24820 kPa | 1463.6 ± 3.2 kg/m3
288.15 K, 25120 kPa | 1463.3 ± 3.2 kg/m3
288.15 K, 30620 kPa | 1467.3 ± 3.2 kg/m3
288.15 K, 39770 kPa | 1473 ± 3.3 kg/m3
288.15 K, 49640 kPa | 1478.8 ± 3.3 kg/m3
288.15 K, 50970 kPa | 1479.2 ± 3.3 kg/m3
288.15 K, 76000 kPa | 1493.8 ± 3.6 kg/m3
288.15 K, 100500 kPa | 1506 ± 3.9 kg/m3
288.15 K, 124500 kPa | 1517.8 ± 4.2 kg/m3
288.15 K, 150400 kPa | 1528.9 ± 4.6 kg/m3
288.15 K, 151000 kPa | 1529.4 ± 4.6 kg/m3
288.15 K, 175100 kPa | 1539.3 ± 5 kg/m3
288.15 K, 199900 kPa | 1548.8 ± 5.4 kg/m3
288.16 K, 99600 kPa | 1506 ± 3.8 kg/m3
293.15 K, 100 kPa | 1441.43 ± 0.82 kg/m3 and 1441.42 ± 0.82 kg/m3
298.15 K, 100 kPa | 1436.64 ± 0.82 kg/m3 and 1436.6 ± 0.82 kg/m3
298.15 K, 9760 kPa | 1444.2 ± 3.1 kg/m3
298.15 K, 15200 kPa | 1448.1 ± 3.1 kg/m3
298.15 K, 24770 kPa | 1454.6 ± 3.2 kg/m3
298.15 K, 24930 kPa | 1454.4 ± 3.2 kg/m3
298.15 K, 39560 kPa | 1464.3 ± 3.2 kg/m3
298.15 K, 50280 kPa | 1470.6 ± 3.3 kg/m3
298.15 K, 100700 kPa | 1498.7 ± 3.8 kg/m3
298.15 K, 124500 kPa | 1510.5 ± 4.2 kg/m3
298.15 K, 150300 kPa | 1522.1 ± 4.6 kg/m3
298.15 K, 174400 kPa | 1532.5 ± 5 kg/m3
298.15 K, 200400 kPa | 1543.2 ± 5.4 kg/m3 and 1542.9 ± 5.4 kg/m3
298.15 K, 249600 kPa | 1561.5 ± 6.4 kg/m3
298.16 K, 20120 kPa | 1451.5 ± 3.1 kg/m3
298.16 K, 30400 kPa | 1458.4 ± 3.2 kg/m3
298.16 K, 50110 kPa | 1470.9 ± 3.3 kg/m3
298.16 K, 75200 kPa | 1485.4 ± 3.6 kg/m3
298.16 K, 100200 kPa | 1498.6 ± 3.9 kg/m3
298.16 K, 150100 kPa | 1522.3 ± 4.6 kg/m3
298.16 K, 225500 kPa | 1553 ± 5.9 kg/m3
303.15 K, 100 kPa | 1431.86 ± 0.82 kg/m3
313.15 K, 100 kPa | 1422.34 ± 0.81 kg/m3
323.15 K, 100 kPa | 1412.87 ± 0.8 kg/m3 and 1412.85 ± 0.8 kg/m3
323.15 K, 15150 kPa | 1424.4 ± 3.1 kg/m3
323.15 K, 24310 kPa | 1431.5 ± 3.1 kg/m3
323.15 K, 24670 kPa | 1431.2 ± 3.1 kg/m3
323.15 K, 30100 kPa | 1435.1 ± 3.2 kg/m3
323.15 K, 39780 kPa | 1441.8 ± 3.2 kg/m3
323.15 K, 49910 kPa | 1448.4 ± 3.3 kg/m3
323.15 K, 50470 kPa | 1449.4 ± 3.3 kg/m3
323.15 K, 75400 kPa | 1463.9 ± 3.5 kg/m3
323.15 K, 99600 kPa | 1478.1 ± 3.8 kg/m3
323.15 K, 100500 kPa | 1478 ± 3.8 kg/m3
323.15 K, 124700 kPa | 1490.3 ± 4.1 kg/m3
323.15 K, 149600 kPa | 1502.1 ± 4.5 kg/m3 and 1502.8 ± 4.5 kg/m3
323.15 K, 174600 kPa | 1513 ± 4.8 kg/m3
323.15 K, 200000 kPa | 1524.7 ± 5.3 kg/m3
323.15 K, 225000 kPa | 1533.7 ± 5.7 kg/m3
323.15 K, 251500 kPa | 1543 ± 6.3 kg/m3
323.16 K, 10250 kPa | 1420.7 ± 3.1 kg/m3
323.16 K, 20180 kPa | 1428.1 ± 3.1 kg/m3
323.16 K, 201000 kPa | 1524.3 ± 5.3 kg/m3
333.15 K, 100 kPa | 1403.48 ± 0.8 kg/m3
343.15 K, 100 kPa | 1394.15 ± 0.79 kg/m3
348.15 K, 10050 kPa | 1397.8 ± 3.1 kg/m3
348.15 K, 15200 kPa | 1402 ± 3.1 kg/m3
348.15 K, 20220 kPa | 1405.9 ± 3.1 kg/m3
348.15 K, 24790 kPa | 1410.4 ± 3.1 kg/m3
348.15 K, 24830 kPa | 1409.3 ± 3.1 kg/m3
348.15 K, 30300 kPa | 1413.4 ± 3.2 kg/m3
348.15 K, 39980 kPa | 1420.5 ± 3.2 kg/m3
348.15 K, 49890 kPa | 1427.3 ± 3.3 kg/m3
348.15 K, 50730 kPa | 1429.7 ± 3.3 kg/m3
348.15 K, 75400 kPa | 1443.5 ± 3.5 kg/m3
348.15 K, 100300 kPa | 1460.9 ± 3.8 kg/m3
348.15 K, 100500 kPa | 1458.5 ± 3.8 kg/m3
348.15 K, 125100 kPa | 1471.9 ± 4 kg/m3
348.15 K, 150000 kPa | 1484.2 ± 6.5 kg/m3
348.15 K, 150500 kPa | 1487.2 ± 6.5 kg/m3
348.15 K, 174700 kPa | 1495.6 ± 4.8 kg/m3
348.15 K, 199200 kPa | 1509.2 ± 5.4 kg/m3
348.15 K, 200600 kPa | 1506.6 ± 5.4 kg/m3
348.15 K, 225700 kPa | 1517 ± 5.6 kg/m3
348.15 K, 250700 kPa | 1526.9 ± 6.1 kg/m3
353.15 K, 100 kPa | 1384.88 ± 0.79 kg/m3
363.15 K, 100 kPa | 1375.67 ± 0.78 kg/m3
